From patent US20100004131A1, “SOLID FORMULATIONS OF HYDROGEN CYANAMIDE FOR AGRICULTURAL APPLICATIONS” (Metbro Distributing, L.P., priority 2007, published 2010)

Columns and labels:
Assay type in all cases: in vivo
Settings in all cases: applied in granular form; pre-plant and final test results collectively
[1] = tested on: reniform nematode (Rotylenchulus reniformis); assay: Nematicidal activity of granules in infested silt loam pots: reniform nematodes
Procedure: (§1) The soil used in this study was naturally infested with three species of nematodes, one of which was deleterious, and the other two beneficial, and observations were made of both the survival of the nematodes and the growth of the soybean plants.
(§2) The hydrogen cyanamide granules were prepared by impregnating PROFILE granules (15 mesh) with DORMEX (50% hydrogen cyanamide in aqueous solution with phosphate buffer), and drying the moist granules on trays at 20° C. for 24 hours to achieve granules containing hydrogen cyanamide at a concentration of 25% by weight. Planting pots measuring 10 cm in diameter were used. Each pot contained 1 kg of silt loam from a cotton field, pH 6.2, CEC<10 meq/100 g soil, organic matter<1.0%, the soil being severely infested with the deleterious reniform nematode (Rotylenchulus reniformis). […]
(§3) After the polyethylene bags were removed, each pot was planted with Hutcheson soybean seeds at 5 seeds per pot, and the seeds were allowed to germinate and the plants to grow for 39 days. […] The number of surviving nematodes in each pot were determined, as were the number of nematodes in the root systems, the weights of both the fresh shoots and the roots, and the shoot height. […] Fischer's Least Significant Difference at p 0.05 was calculated when appropriate. […]

Dorylaimida nematodes = assay: Nematicidal activity of granules in infested silt loam pots: Dorylaimida nematodes
Procedure: as §1, §2, §3

[2] = tested on: microbivorous (beneficial) nematodes; assay: Nematicidal activity of granules in infested silt loam pots: microbivorous nematodes
Procedure: as §1, §2, §3

N#CN [hydrogen cyanamide]
nematicidal activity against the reniform nematodes [1]: without loss of nematicidal activity | populations of the Dorylaimida nematodes (Dorylaimida nematodes): affected | populations of the microbivorous nematodes [2]: not significantly affected
